According to patent US20230399341A1, “7-PHENYL SUBSTITUTED 2-AMINOQUINAZOLINE INHIBITORS OF HPK1” (MERCK SHARP & DOHME LLC, priority 2020, published 2023):

These compounds were tested against T1, Human HPK1, catalytic domain (Homo sapiens, UniProt Q92918) (assay: HPK1-SLP76 TR-FRET Assay). Conditions: 75 pM HPK1, ATP 10 uM, SLP76 10 nM, 30 min pre-incubation, 60 min reaction.
T1 sequence (Q92918 1-346): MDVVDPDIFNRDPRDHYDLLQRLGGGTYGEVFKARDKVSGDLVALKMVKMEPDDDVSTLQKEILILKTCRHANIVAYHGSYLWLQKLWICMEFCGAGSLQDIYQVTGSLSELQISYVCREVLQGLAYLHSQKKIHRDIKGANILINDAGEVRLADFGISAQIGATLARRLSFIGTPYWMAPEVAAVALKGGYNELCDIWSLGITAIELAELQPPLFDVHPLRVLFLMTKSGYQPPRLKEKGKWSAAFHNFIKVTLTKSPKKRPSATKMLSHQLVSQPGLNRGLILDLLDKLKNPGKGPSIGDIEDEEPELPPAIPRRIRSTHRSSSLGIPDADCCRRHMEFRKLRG
Assay type: biochemical

| IC50 [nM] | SMILES |
| --- | --- |
| 0.0382 | Cc1c(-c2cc3nc(Nc4ccc5c(c4)CN(C)C(C)C5)ncc3c(N)c2F)cnc2c1NCCO2 (single isomer, unassigned) [Compound 2-86, (R or S)—N2-(2,3-dimethyl-1,2,3,4-tetrahydroisoquinolin-7-yl)-6-fluoro-7-(8-methyl-2,3-dihydro-1H-pyrido[2,3-b][1,4]oxazin-7-yl)quinazoline-2,5-diamine] |
| 130 | COc1cc2c(cc1Nc1ncc3ccc(-c4cccc(C(N)=O)c4)cc3n1)CN(C)CC2 [Compound 1-101, 3-{2-[(6-methoxy-2-methyl-1,2,3,4-tetrahydroisoquinolin-7-yl)amino]quinazolin-7-yl}benzamide] |
| 100 | Cc1c(-c2cc3nc(Nc4cccc5c4CC(C)(C)N(C)C5)ncc3c(N)c2F)cnc2c1NCCO2 (single isomer, unassigned) [Compound 2-127] |
| 0.405 | Cc1c(-c2c(F)c(N)c3cnc(Nc4ccc(CS(=O)(=O)C(C)C)cc4)nc3c2Cl)cnc2c1NCCO2 [Compound 2-133, (+ and −)-8-chloro-6-fluoro-7-(8-methyl-2,3-dihydro-1H-pyrido[2,3-b][1,4]oxazin-7-yl)-N~2~- (4-{[(propan-2-yl)sulfonyl]methyl}phenyl) quinazoline-2,5-diamine] |
| 45.5 | COc1cc2c(cc1Nc1ncc3ccc(N4CC(C)(CO)OC4=O)cc3n1)CN(C)CC2 (racemic) [Compound 3-7, (S and R)-5-(hydroxymethyl)-3-{2-[(6-methoxy-2-methyl-1,2,3,4-tetrahydroisoquinolin-7-yl)amino]quinazolin-7-yl}-5-methyl-1,3-oxazolidin-2-one] |
| 0.0222 | Cc1c(-c2cc3nc(Nc4ccc(CS(C)(=O)=O)nc4)ncc3c(N)c2F)cnc2c1NCCO2 [Compound 2-84, 6-fluoro-7-(8-methyl-2,3-dihydro-1H-pyrido[2,3-b][1,4]oxazin-7-yl)-N2-(6-((methylsulfonyl)methyl)pyridin-3-yl)quinazoline-2,5-diamine] |
| 94.2 | CNCC1CN(c2ccc3cnc(Nc4cc5c(cc4OC)CCN(C)C5)nc3c2)C(=O)O1 (racemic) [Compound 3-12, (S and R)-3-12-[(6-methoxy-2-methyl-1,2,3,4-tetrahydroiso-quinolin-7-yl)amino]quinazolin-7-yl}-5-[(methylamino)methyl]-1,3-oxazolidin-2-one] |
| 44.1 | COc1cc2c(cc1Nc1ncc3ccc(-c4cccc(C(=O)N5CCCC5)c4)cc3n1)CNCC2 [Compound 1-86, (3-{2-[(6-methoxy-1,2,3,4-tetrahydroisoquinolin-7-yl)amino]quinazolin-7-yl}phenyl)(pyrrolidin-1-yl)methanone] |
| 205 | COc1cc2c(cc1Nc1ncc3ccc(N4CC5(CCNCC5)OC4=O)cc3n1)CN(C)CC2 [Compound 3-5, 3-{2-[(6-methoxy-2-methyl-1,2,3,4-tetrahydroisoquinolin-7-yl)amino]quinazolin-7-yl}-1-oxa-3,8-diazaspiro[4.5]decan-2-one] |
| 0.372 | COc1cc2c(cc1Nc1ncc3c(N)cc(-c4cnccc4C)cc3n1)CNCC2 [Compound 2-37, N^2-(6-methoxy-1,2,3,4-tetrahydroisoquinolin-7-yl)-7-(4-methylpyridin-3-yl)quinazoline-2,5-diamine] |
| 9.67 | COc1cc2c(cc1Nc1ncc3ccc(-c4cncc(C)c4)cc3n1)CNCC2 [Compound 1-41, N-(6-methoxy-1,2,3,4-tetrahydroisoquinolin-7-yl)-7-(5-methylpyridin-3-yl)quinazolin-2-amine] |
| 0.121 | COc1cc(CS(C)(=O)=O)ccc1Nc1ncc2c(N)c(F)c(-c3cnc4c(c3C)NCCO4)c(Cl)c2n1 (single isomer, unassigned) [Compound 2-101, (+ or −)-8-chloro-6-fluoro-N~2~-{2-methoxy-4-[(methylsulfony])methyl] phenyl}-7-(8-methyl-2,3-dihydro-1H-pyrido[2,3-b][1,4]oxazin-7-yl)quinazoline-2,5-diamine] |
| 0.532 | CNC(=O)C(F)(F)c1ccc(Nc2ncc3cc(F)c(-c4cnc5c(c4C)NCCO5)cc3n2)cc1 [Compound 1-122, 2,2-difluoro-2-(4-{[6-fluoro-7-(8-methyl-2,3-dihydro-1H-pyrido[2,3-b][1,4]oxazin-7-yl)quinazolin-2-yl]amino}phenyl)-N-methylacetamide] |
| 0.104 | COc1cc(CS(=O)(=O)C(C)C)ccc1Nc1ncc2c(N)c(F)c(-c3cnc4c(c3C)NCCO4)cc2n1 [Compound 2-168, 6-fluoro-N~2~-(2-methoxy-4-{[(propan-2-yl)sulfonyl]methyl}phenyl)-7-(8-methyl-2,3-dihydro-1H-pyrido[2,3-b][1,4]oxazin-7-yl)quinazoline-2,5-diamine] |
| 27 | COc1cc2c(cc1Nc1ncc3ccc(-c4ccccc4N4CCOC4=O)cc3n1)CN(C)CC2 [Compound 1-10, 3-(2-{2-[(6-methoxy-2-methyl-1,2,3,4-tetrahydroisoquinolin-7-yl)amino]quinazolin-7-yl}phenyl)-1,3-oxazolidin-2-one] |
| 96.7 | COc1cc2c(cc1Nc1ncc3ccc(N[C@H]4CCN(C)C4=O)cc3n1)CN(C)CC2 [Compound 3-49, (3S)-3-({2-[(6-methoxy-2-meth-yl-1,2,3,4-tetrahydroisoquinolin-7-yl)amino]quinazolin-7-yl}-amino)-1-methylpyrrolidin-2-one] |
| 0.232 | CCS(=O)(=O)Cc1ccc(Nc2ncc3c(N)c(F)c(-c4cnc5c(c4C)NCC(C)(C)O5)cc3n2)c(F)c1 [Compound 2-144, N~2~-{4-[(ethylsulfonyl)methyl]-2-fluorophenyl}-6-fluoro-7-(3,3,8-trimethyl-2,3-dihydro-1H-pyrido[2,3-b][1,4]oxazin-7-yl)quinazoline-2,5-diamine] |
| 88.5 | COc1cc2c(cc1Nc1ncc3ccc(-c4cccc5nc(N)[nH]c45)cc3n1)CNCC2 [Compound 1-73] |
| 55.3 | COc1cc2c(cc1Nc1ncc3ccc(-c4cncc(C(C)(C)O)c4)cc3n1)CN(C)CC2 [Compound 1-14, 2-(5-{2-[(6-methoxy-2-methyl-1,2,3,4-tetrahydroisoquinolin-7-yl)amino]quinazolin-7-yl}pyridin-3-yl)propan-2-ol] |
| 0.0505 | Cc1c(-c2cc3nc(Nc4ccc5c(c4)CN(C)CC5)ncc3c(N)c2F)cnc2c1NCC(C)O2 (single isomer, unassigned) [Compound 2-141, (R or S)-7-(3,8-dimethyl-2,3-dihydro-1H-pyrido[2,3-b][1,4]oxazin-7-yl)-6-fluoro-N2-(2-methyl-1,2,3,4-tetrahydroisoquinolin-7-yl)quinazoline-2,5-diamine] |
| 1.19 | Cc1c(-c2c(F)c(N)c3cnc(Nc4ccc5c(c4)CN(C)CC54CC4)nc3c2Cl)cnc2c1NCCO2 [Compound 2-100, (+ or −)-8-chloro-6-fluoro-7-(8-methyl-2,3-dihydro-1H-pyrido[2,3-b][1,4]oxazin-7-yl)-N~2~- (2′-methyl-2′,3′-dihydro-1′H-spiro[cyclopropane-1,4′-isoquinolin]-7′-yl)quinazoline-2,5-diamine] |
| 138 | COc1cc2c(cc1Nc1ncc3ccc(NC4C5COCC54)cc3n1)CN(C)CC2 (stereo not drawn) [Compound 3-74, N~2~-(6-methoxy-2-methyl-1,2,3,4-tetrahydroisoquinolin-7-yl)-N~7~-(3-oxabicyclo[3.1.0]-hexan-6-yl)quinazoline-2,7-diamine] |
| 192 | COc1cc2c(cc1Nc1ncc3ccc(-c4ccc(S(=O)(=O)N5CCCC5)cc4)cc3n1)CNCC2 [Compound 1-81, N-(6-methoxy-1,2,3,4-tetrahydroisoquinolin-7-yl)-7-{4-[(pyrrolidin-1-yl)sulfonyl]phenyl}quinazo-lin-2-amine] |
| 5.9 | COc1cc2c(cc1Nc1ncc3ccc(-c4cncc(N5CCNCC5)c4)cc3n1)CNCC2 [Compound 1-50, N-(6-methoxy-1,2,3,4-tetrahydroisoquinolin-7-yl)-7-[5-(piperazin-1-yl)pyridin-3-yl]quinazolin-2-amine] |
| 0.0321 | Cc1c(-c2cc3nc(Nc4ccc5c(c4)CN(C(C)C)CC5)ncc3c(N)c2F)cnc2c1NCCO2 [Compound 2-76, 6-fluoro-7-(8-methyl-2,3-dihydro-11H-pyrido[2,3-b][1,4]oxazin-7-yl)-N˜2˜-[2-(propan-2-yl)-1,2,3,4-tetrahydroisoquinolin-7-yl]quinazoline-2,5-diamine] |
| 0.0399 | Cc1c(-c2c(F)c(N)c3cnc(Nc4ccc(CS(C)(=O)=O)cc4)nc3c2Cl)cnc2c1NCCO2 [Compound 2-92, (+ or −)-8-chloro-6-fluoro-7-(8-methyl-2,3-dihydro-1H-pyrido[2,3-b[1,4]oxazin-7-yl)-N~2~- {4-[(methylsulfonyl)methyl]phenyl}quinazoline-2,5-diamine] |
| 0.0731 | CC(=O)Nc1ccc(Nc2ncc3c(N)c(F)c(-c4cnc5c(c4C)NCCO5)cc3n2)cc1 [Compound 2-15] |
| 0.255 | CNC(=O)c1ccc(Nc2ncc3c(N)cc(N4C(=O)OC[C@@H]4C)cc3n2)cc1 [Compound 3-79] |
| 0.0761 | Cc1c(-c2cc3nc(Nc4ccc5c(c4)C(C)(C)OC5=O)ncc3c(N)c2F)cnc2c1NCCO2 [Compound 2-41, 5-{[5-amino-6-fluoro-7-(8-methyl-2,3-dihydro-1H-pyrido[2,3-b][1,4]oxazin-7-yl)quinazolin-2-yl]amino}-3,3-dimethyl-2-benzofuran-1(3H)-one] |
| 5.6 | COc1cc2c(cc1Nc1ncc3ccc(-c4cncc(CO)c4)cc3n1)CNCC2 [Compound 1-53, (5-{2-[(6-methoxy-1,2,3,4-tetrahydroisoquinolin-7-yl)amino]quinazolin-7-yl}pyridin-3-yl)methanol] |
